Laboratory results taken from patent publication US20050042283A1, “Histamine and CCK2/gastrin receptor blockade in the treatment of acid-peptic disease and cancer” (UNIVERSITY OF MASSACHUSETTS, priority 2003, published 2005).

How the values were obtained:
CCK-B = biological target: T1, CCK-B (Rattus norvegicus, UniProt P30553); conditions: reportedly; Lindstrom et al 1999; cited from earlier work
T1 sequence (P30553 1-452): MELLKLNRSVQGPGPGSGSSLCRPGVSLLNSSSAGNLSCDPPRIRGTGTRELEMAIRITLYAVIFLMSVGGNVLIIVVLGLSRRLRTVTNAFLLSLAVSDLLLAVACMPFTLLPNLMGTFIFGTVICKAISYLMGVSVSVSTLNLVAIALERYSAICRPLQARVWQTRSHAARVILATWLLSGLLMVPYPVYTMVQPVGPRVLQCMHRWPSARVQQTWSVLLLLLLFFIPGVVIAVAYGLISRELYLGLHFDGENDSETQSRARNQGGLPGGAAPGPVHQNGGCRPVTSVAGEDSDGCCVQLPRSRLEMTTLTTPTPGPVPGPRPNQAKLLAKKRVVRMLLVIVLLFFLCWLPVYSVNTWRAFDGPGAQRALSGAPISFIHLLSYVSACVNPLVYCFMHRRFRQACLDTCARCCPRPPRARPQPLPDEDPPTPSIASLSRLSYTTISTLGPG

ECL cell = conditions: rats; Poynter et al.; cited from earlier work
[1] = test system: H. felis-infected INS-GAS mice; assay: Gastric mucosa histological evaluation and scoring; type: in vivo; conditions: omeprazole study, 3 months; scale 0 to 4; n = 4
Text: The insulin-gastrin (INS-GAS) transgenic mice (FVB/N background) have been described previously (Wang, T. C. et al., 2000; Wang T. C. et al., 1993) and were free of specific pathogens. Animals were housed in microisolator, solid-bottomed polycarbonate cages, fed a commercially prepared pelleted diet, and given water ad libitum. One hundred twenty four (124) male INS-GAS mice at 2 or 3 months of age were inoculated with Helicobacter felis (ATCC 49179) as previously described (Wang, T. C. et al., 2000). Infection status was confirmed at 14 weeks and 26 weeks post inoculation by enzyme-linked immunosorbent assay (ELISA) to measure immunoglobulin IgG antibody to H. felis, and by quantitative real-time PCR assays of gastric corpus tissue at necropsy as described below. All experiments were approved by the Institutional Animal Care and Use Committee of University of Massachusetts Medical School.
Mice in group III were treated orally with the histamine H2 receptor antagonist loxtidine (in drinking water) at a dose of 0.5 g/L, while group IV mice received both drugs. For the 3 months drug study of inhibitory effects on maximal acid secretion, gastric atrophy, hyperplasia and dysplasia, 8 mice were prepared for each group. For the 6 months drug study of inhibitory effects on gastric carcinogenesis, 17 mice were prepared for each group.
The proton pump inhibitor omeprazole was purchased from Sigma (St. Louis Mo.) and dissolved in dimethylsulfoxide (DMSO)/PEG300, a 1:1 mixture at the concentration of 40 mg/ml, and injected intraperitoneally daily at the dose of […] (=350 micromole/kg) for 3 months. Twenty four (24) mice were divided into four groups. Mice in group A were controls treated with vehicle only, whereas group B mice were treated with omeprazole alone. Group C and D mice were treated with combination of omeprazole and YF476 or loxtidine, respectively.
At necropsy, linear strips extending from the squamocolumnar junction through the proximal duodenum were fixed in 10% neutral-buffered formalin, paraffin-embedded, cut at 5 microns, and stained with hematoxylin and eosin. Indices of injury in the gastric cardia/corpus and antrum were scored on an ordinal scale from 0 to 4 in increments of 0.5 by a single veterinary pathologist (A.B.R.) blinded to treatment groups. Paraffin-embedded sections were also stained with the Warthin-Starry silver staining method for detection of H.felis as previously described (Fox, J. G. et al., 2003).

Row | Structure (SMILES) | Potency relative to YF476 (CCK-B) | Duration of administration after which ECL cell hyperplasia was seen (ECL cell) | Corpus histological score: Atrophy [1] | Corpus histological score: Dysplasia [1] | Corpus histological score: Hyperplasia [1] | Corpus histological score: Inflammation [1]
1 | Cc1cccc(NC(=O)N[C@@H]2N=C(c3ccccc3)c3ccccc3N(CC(=O)c3ccccc3C)C2=O)c1 [YM022] | about 5 times |  |  |  |  | 
2 | COc1ccc2[nH]c([S+]([O-])Cc3ncc(C)c(OC)c3C)nc2c1 (stereo not drawn) [Omeprazole alone] |  | 28 days | 3.13 ± 0.25 | 1.38 ± 0.48 | 2.75 ± 0.50 | 1.88 ± 0.63a
